Here are results for 33 compounds from patent US12071404B2, “Aza (indole)-, benzothiophene-, and benzofuran-3-sulfonamides” (UCB Pharma GmbH, priority 2016, dated 2024).

Some results are limits rather than exact numbers.

The target of experiment [1] is T1, GPR17 (Homo sapiens, UniProt Q13304). The experiment can be described thus: Calcium mobilization functional assay (GPR17 Ca2+ assay). The settings on record: CHO hGPR17 cells, inhibition of 50 nM MDL29,951, Calcium 5 dye, FLIPR; read-out: Ca2+ assay pIC50 (converted). Further details: host or cells: Flp-In T-REx CHO. The class given is cell-based. Put shortly:
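Flp-In T-REx CHO cells stably expressing human GPR17, doxycycline-induced (1 μg/mL, 16-20 h), loaded 60 min with Calcium 5 dye. Inhibition by varying test-compound concentrations of the 50 nM MDL29,951 agonist response was read by fluorescence over time at room temperature. pIC50 came from 4-parameter logistic fitting.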
Background: A change in cytosolic calcium serves as a functional read-out for many receptors and channels.

Experiment [2] addresses T1, GPR17. The experiment can be described thus: cAMP accumulation functional assay (HTRF, Schild analysis). Format: cell-based. Details: host or cells: Flp-In T-REx CHO. The settings on record: CHO hGPR17 cells, Schild analysis vs MDL29,951, 5 μM forskolin, read-out: cAMP assay pA2 (converted). Put shortly:
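CHO Flp-In T-REx cells with doxycycline-induced human GPR17 were preincubated 30 min at room temperature in HBSS-HEPES pH 7.4 with antagonist. cAMP was then measured by HTRF after 60 min. MDL29,951 pEC50 shifts gave dose ratios, and Schild analysis gave pA2.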
For orientation: cAMP levels reflect the balance of adenylyl cyclase and phosphodiesterase activity.

T1 sequence (Q13304 whole entry): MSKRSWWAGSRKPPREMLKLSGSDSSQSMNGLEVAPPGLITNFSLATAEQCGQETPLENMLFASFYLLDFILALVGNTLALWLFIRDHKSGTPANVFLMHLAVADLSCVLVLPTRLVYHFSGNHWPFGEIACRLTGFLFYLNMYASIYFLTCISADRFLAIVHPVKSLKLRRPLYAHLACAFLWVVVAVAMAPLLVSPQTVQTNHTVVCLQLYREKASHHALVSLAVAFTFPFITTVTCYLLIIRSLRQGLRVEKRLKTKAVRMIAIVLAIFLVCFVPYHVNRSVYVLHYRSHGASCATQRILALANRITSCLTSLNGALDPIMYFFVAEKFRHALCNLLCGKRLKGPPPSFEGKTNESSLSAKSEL

With `N#Cc1cc(F)c(NS(=O)(=O)c2c[nH]c3cc(OCc4ccccc4)ccc23)cc1F` [Compound I-153, 6-(benzyloxy)-N-(4-cyano-2,5-difluorophenyl)-1H-indole-3-sulfonamide], the IC50 on GPR17 [1] was less than 3.16 nM. At GPR17 [2], the Kb is 3.16 to 31.6 nM.

On to `O=S(=O)(Nc1cc2nsnc2cc1F)c1c[nH]c2cc(Cl)ccc12` [Compound I-162, 6-chloro-N-(6-fluoro-2,1,3-benzothiadiazol-5-yl)-1H-indole-3-sulfonamide], for which the IC50 at GPR17 [1] is less than 3.16 nM. Besides, at GPR17 [2], the Kb was less than 3.16 nM.

Consider `COc1nc(NS(=O)(=O)c2c[nH]c3cc(Cl)c(F)cc23)c(F)cc1Cl` [Compound I-339, 6-chloro-N-(5-chloro-3-fluoro-6-methoxypyridin-2-yl)-5-fluoro-1H-indole-3-sulfonamide], for which the IC50 at GPR17 [1] was less than 3.16 nM. For the same compound, the Kb on GPR17 [2] was 3.16 to 31.6 nM.

For the compound `COc1cc(C#N)ccc1NS(=O)(=O)c1c[nH]c2cc(Cl)ccc12` [Compound I-126, 6-chloro-N-(4-cyano-2-methoxyphenyl)-1H-indole-3-sulfonamide], the IC50 on GPR17 [1] is 3.16 to 31.6 nM. Further, on GPR17 [2], the Kb is 3.16 to 31.6 nM.

On to `COc1cc(NS(=O)(=O)c2c[nH]c3cc(Cl)ccc23)ncc1Cl` [Compound I-60, 6-chloro-N-(5-chloro-4-methoxypyridin-2-yl)-1H-indole-3-sulfonamide], for which the IC50 on GPR17 [1] is more than 31.6 nM. For the same compound, the Kb on GPR17 [2] is more than 31.6 nM.

Turning to `Cc1cc(F)c(NS(=O)(=O)c2c[nH]c3cc(Cl)ccc23)cc1F` [Compound I-270, 6-chloro-N-(2,5-difluoro-4-methylphenyl)-1H-indole-3-sulfonamide], the IC50 on GPR17 [1] is less than 3.16 nM. In addition, on GPR17 [2], the Kb is less than 3.16 nM.

Turning to `N#Cc1ccc(NS(=O)(=O)c2c[nH]c3nc(Cl)ccc23)cc1` [Compound I-178, 6-chloro-N-(4-cyanophenyl)-1H-pyrrolo[2,3-b]pyridine-3-sulfonamide], the IC50 on GPR17 [1] is 3.16 to 31.6 nM. The Kb on GPR17 [2] was 3.16 to 31.6 nM.

For `COc1ccc2c(S(=O)(=O)Nc3cc(F)c(Cl)cc3F)c[nH]c2n1` [Compound I-281, N-(4-chloro-2,5-difluorophenyl)-6-methoxy-1H-pyrrolo[2,3-b]pyridine-3-sulfonamide], the IC50 on GPR17 [1] is 3.16 to 31.6 nM. In addition, the Kb on GPR17 [2] was 3.16 to 31.6 nM.

Consider `O=S(=O)(Nc1cc(F)ccc1F)c1c[nH]c2nc(Cl)ccc12` [Compound I-90, 6-chloro-N-(2,5-difluorophenyl)-1H-pyrrolo[2,3-b]pyridine-3-sulfonamide], for which the IC50 at GPR17 [1] was more than 31.6 nM. The Kb at GPR17 [2] was more than 31.6 nM.

Regarding `Cc1ccc2c(S(=O)(=O)Nc3ccc(Cl)cc3F)c[nH]c2c1` [Compound I-174, N-(4-chloro-2-fluorophenyl)-6-methyl-1H-indole-3-sulfonamide], the IC50 on GPR17 [1] is 3.16 to 31.6 nM. Also, at GPR17 [2], the Kb was 3.16 to 31.6 nM.

Consider `O=C1OCc2cc(F)c(NS(=O)(=O)c3c[nH]c4cc(Cl)ccc34)cc21` [Compound I-243, 6-chloro-N-(6-fluoro-3-oxo-1,3-dihydro-2-benzofuran-5-yl)-1H-indole-3-sulfonamide], for which, at GPR17 [1], the IC50 was 3.16 to 31.6 nM. Besides, at GPR17 [2], the Kb was 3.16 to 31.6 nM.

Consider `COc1ccc2c(S(=O)(=O)Nc3cc(F)c(C#N)cc3OC)c[nH]c2c1` [Compound I-288, N-(4-cyano-5-fluoro-2-methoxyphenyl)-6-methoxy-1H-indole-3-sulfonamide], for which the IC50 at GPR17 [1] is less than 3.16 nM. Further, the Kb on GPR17 [2] is 3.16 to 31.6 nM.

`COc1ccc2c(S(=O)(=O)Nc3cc(F)c(Cl)cc3F)c[nH]c2c1` [Compound I-221, N-(4-chloro-2,5-difluorophenyl)-6-methoxy-1H-indole-3-sulfonamide]: the IC50 on GPR17 [1] was 3.16 to 31.6 nM. Besides, the Kb on GPR17 [2] was 3.16 to 31.6 nM.

With `O=S(=O)(Nc1cc(F)c(F)cc1F)c1c[nH]c2cc(Cl)ccc12` [Compound I-203, 6-chloro-N-(2,4,5-trifluorophenyl)-1H-indole-3-sulfonamide], on GPR17 [1], the IC50 is 3.16 to 31.6 nM. At GPR17 [2], the Kb was less than 3.16 nM.

For `N#CCOc1cc(F)c(NS(=O)(=O)c2coc3cc(Cl)ccc23)cc1F` [Compound I-342, 6-chloro-N-[4-(cyanomethoxy)-2,5-difluorophenyl]-1-benzofuran-3-sulfonamide], the IC50 at GPR17 [1] was 3.16 to 31.6 nM. Moreover, the Kb at GPR17 [2] is 3.16 to 31.6 nM.

As for `N#Cc1ccc(NS(=O)(=O)c2c[nH]c3c2ccc2ccccc23)cc1` [Compound I-159, N-(4-cyanophenyl)-1H-benzo[g]indole-3-sulfonamide], at GPR17 [1], the IC50 was 3.16 to 31.6 nM. In addition, the Kb on GPR17 [2] was 3.16 to 31.6 nM.

For `N#Cc1ccc(NS(=O)(=O)c2c[nH]c3cc(Cl)c(F)cc23)c(F)c1` [Compound I-258, 6-chloro-N-(4-cyano-2-fluorophenyl)-5-fluoro-1H-indole-3-sulfonamide], the IC50 at GPR17 [1] is less than 3.16 nM. Also, the Kb at GPR17 [2] was 3.16 to 31.6 nM.

Take `O=S(=O)(Nc1ccc(F)c2nsnc12)c1c[nH]c2nc(Cl)ccc12` [Compound I-226, 6-chloro-N-(7-fluoro-2,1,3-benzothiadiazol-4-yl)-1H-pyrrolo[2,3-b]pyridine-3-sulfonamide]: the IC50 at GPR17 [1] was more than 31.6 nM. Moreover, the Kb on GPR17 [2] was more than 31.6 nM.

`COCCCc1cc(F)c(NS(=O)(=O)c2c[nH]c3cc(Br)ccc23)nc1F` [Compound I-323, 6-bromo-N-[3,6-difluoro-5-(3-methoxypropyl)pyridin-2-yl]-1H-indole-3-sulfonamide]: the IC50 on GPR17 [1] is less than 3.16 nM. In addition, the Kb on GPR17 [2] was less than 3.16 nM.

Take `COc1nc(NS(=O)(=O)c2c[nH]c3nc(Cl)ccc23)c(F)cc1Cl` [Compound I-336, 6-chloro-N-(5-chloro-3-fluoro-6-methoxypyridin-2-yl)-1H-pyrrolo[2,3-b]pyridine-3-sulfonamide]: the IC50 on GPR17 [1] is less than 3.16 nM. For the same compound, the Kb on GPR17 [2] is 3.16 to 31.6 nM.

Regarding `O=S(=O)(Nc1cc(F)c(Cl)cc1F)c1c[nH]c2nc(C(F)(F)F)ccc12` [Compound I-247, N-(4-chloro-2,5-difluorophenyl)-6-(trifluoromethyl)-1H-pyrrolo[2,3-b]pyridine-3-sulfonamide], the IC50 at GPR17 [1] was 3.16 to 31.6 nM. Besides, the Kb on GPR17 [2] was less than 3.16 nM.

As to `CCOC(=O)/C=C/c1cc(F)c(NS(=O)(=O)c2c[nH]c3cc(Cl)ccc23)nc1F` [Compound I-330, Ethyl (2E)-3-(6-{[(6-chloro-1H-indol-3-yl)sulfonyl]amino}-2,5-difluoropyridin-3-yl)prop-2-enoate], the IC50 at GPR17 [1] is 3.16 to 31.6 nM. The Kb on GPR17 [2] was less than 3.16 nM.

Turning to `Cc1ccc(NS(=O)(=O)c2c[nH]c3cc(Cl)ccc23)c(F)c1` [Compound I-56, 6-chloro-N-(2-fluoro-4-methylphenyl)-1H-indole-3-sulfonamide], the IC50 on GPR17 [1] was more than 31.6 nM. In addition, at GPR17 [2], the Kb was 3.16 to 31.6 nM.

As for `N#Cc1cc(F)c(NS(=O)(=O)c2c[nH]c3cc(Br)ccc23)cc1F` [Compound I-188, 6-bromo-N-(4-cyano-2,5-difluorophenyl)-1H-indole-3-sulfonamide], the IC50 at GPR17 [1] was less than 3.16 nM. Besides, the Kb at GPR17 [2] is less than 3.16 nM.

For `O=S(=O)(Nc1ccc(S(F)(F)(F)(F)F)cc1F)c1c[nH]c2cc(Cl)ccc12` [Compound I-215, 6-chloro-N-[2-fluoro-4-(pentafluoro-lambda-6-sulfanyl)phenyl]-1H-indole-3-sulfonamide], the IC50 at GPR17 [1] is 3.16 to 31.6 nM. At GPR17 [2], the Kb is 3.16 to 31.6 nM.

On to `Cc1cnc(NS(=O)(=O)c2c[nH]c3cc(Cl)ccc23)c(F)c1` [Compound I-279, 6-chloro-N-(3-fluoro-5-methylpyridin-2-yl)-1H-indole-3-sulfonamide], for which, on GPR17 [1], the IC50 was 3.16 to 31.6 nM. Besides, the Kb on GPR17 [2] was 3.16 to 31.6 nM.

Take `O=S(=O)(Nc1cc2c(cc1F)OC(F)(F)O2)c1c[nH]c2nc(Cl)ccc12` [Compound I-225, 6-chloro-N-(2,2,6-trifluoro-1,3-benzodioxol-5-yl)-1H-pyrrolo[2,3-b]pyridine-3-sulfonamide]: the IC50 on GPR17 [1] was more than 31.6 nM. The Kb at GPR17 [2] was 3.16 to 31.6 nM.

On to `N#Cc1ccc(NS(=O)(=O)c2csc3cc(Cl)ccc23)cc1` [Compound I-311, 6-chloro-N-(4-cyanophenyl)-1-benzothiophene-3-sulfonamide], for which, on GPR17 [1], the IC50 was 3.16 to 31.6 nM. For the same compound, the Kb at GPR17 [2] is 3.16 to 31.6 nM.

Turning to `O=S(=O)(Nc1cc(F)c(Cl)cc1F)c1coc2cc(Cl)ccc12` [Compound I-198, 6-chloro-N-(4-chloro-2,5-difluorophenyl)-1-benzofuran-3-sulfonamide], the IC50 on GPR17 [1] is 3.16 to 31.6 nM. In addition, the Kb at GPR17 [2] was 3.16 to 31.6 nM.

For `N#Cc1ccc(NS(=O)(=O)c2c[nH]c3cc(OCC(F)(F)F)ccc23)c(F)c1` [Compound I-294, N-(4-cyano-2-fluorophenyl)-6-(2,2,2-trifluoroethoxy)-1H-indole-3-sulfonamide], the IC50 at GPR17 [1] was 3.16 to 31.6 nM. Further, at GPR17 [2], the Kb was 3.16 to 31.6 nM.

With `O=S(=O)(Nc1cccc2nsnc12)c1c[nH]c2nc(Cl)ccc12` [Compound I-93, N-(2,1,3-benzothiadiazol-4-yl)-6-chloro-1H-pyrrolo[2,3-b]pyridine-3-sulfonamide], the IC50 at GPR17 [1] is 3.16 to 31.6 nM. Further, the Kb at GPR17 [2] is 3.16 to 31.6 nM.

Turning to `CS(=O)(=O)c1ccc2c(S(=O)(=O)Nc3ccc(C#N)cc3)c[nH]c2c1` [Compound I-14, N-(4-cyanophenyl)-6-(methylsulfonyl)-1H-indole-3-sulfonamide], the IC50 on GPR17 [1] was 3.16 to 31.6 nM. Besides, on GPR17 [2], the Kb was 3.16 to 31.6 nM.

On to `COc1nc(NS(=O)(=O)c2c[nH]c3c(F)c(Cl)ccc23)c(F)cc1F` [Compound I-358, 6-chloro-N-(3,5-difluoro-6-methoxypyridin-2-yl)-7-fluoro-1H-indole-3-sulfonamide], for which the IC50 on GPR17 [1] was 3.16 to 31.6 nM. For the same compound, on GPR17 [2], the Kb was 3.16 to 31.6 nM.
